The test system of the assay is Substance P. Put plainly: Tachykinin antagonistic action: suppression of substance P-induced contraction of isolated guinea pig ileum. Also noted: species or system guinea pig (Hartley strain, male). As to conditions: isotonic contraction, substance P 10^-8 M, 10 minutes treatment with test drug. Here is the method:
The compounds of the present invention were tested by an assay using ileum isolated from guinea pigs. Male guinea pigs of the Hartley strain (400 g to 500 g) were fainted and bled out. Then, ileum was isolated and hung in an organ bath filled with a nutritive solution. After an equilibration for 60 minutes, isotonic contraction was recorded. Substance P, a tachykinin agonist, was administered in a dose of 10^-8 M every 15 minutes. Administration of substance P was repeated for 3 to 4 times and it was confirmed that a contraction height for each run became constant. The constant contraction was used as a control. A treatment with the test drug was carried out for 10 minutes and then substance P was administered again and a concentration vs. action curve was prepared. A 50% suppression concentration (lC50) was determined from the concentration vs. action curve of the test drug. The compound of the present invention was used as a test drug and an example of the result of its antagonistic action to substance P is shown in Table 1: […]
In turn, `CC(=O)Oc1ccc(/C=C/C(=O)NCCCN(CCCCN(CCCNC(=O)/C=C/c2ccc(OC(C)=O)cc2)C(=O)/C=C/c2ccc(OC(C)=O)cc2)C(=O)/C=C/c2ccc(OC(C)=O)cc2)cc1` [Compound 1, N1,N5,N10,N14-Tetrakis[3-(4-acetoxyphenyl)-2-propenoyl]tetraazatetradecane] gave an IC50 of 14 nM.
`O=C(/C=C/c1ccc(O)cc1)NCCCN(CCCCN(CCCNC(=O)/C=C/c1ccc(O)cc1)C(=O)/C=C/c1ccc(O)cc1)C(=O)/C=C/c1ccc(O)cc1` [Compound 2, N1,N5,N10,N14-Tetrakis[3-(4-hydroxyphenyl)-2-propenoyl]tetraazatetradecane]: the 50% inhibitory concentration (IC50) was 11 nM.
With `COc1cc(/C=C/C(=O)NCCCN(CCCCN(CCCNC(=O)/C=C/c2ccc(OC(C)=O)c(OC)c2)C(=O)/C=C/c2ccc(OC(C)=O)c(OC)c2)C(=O)/C=C/c2ccc(OC(C)=O)c(OC)c2)ccc1OC(C)=O` [Compound 3, N1,N5,N10,N14-Tetrakis[3-(4-acetoxy-3-methoxyphenyl)-2-propenoyl]tetraazatetradecane], the IC50 is 710 nM.
In turn, `COc1cc(/C=C/C(=O)NCCCN(CCCCN(CCCNC(=O)/C=C/c2ccc(O)c(OC)c2)C(=O)/C=C/c2ccc(O)c(OC)c2)C(=O)/C=C/c2ccc(O)c(OC)c2)ccc1O` [Compound 4, N1,N5,N10,N14-Tetrakis[3-(4-hydroxy-3-methoxyphenyl)-2-propenoyl]tetraazatetradecane] displayed a half-inhibitory concentration (IC50) of 580 nM. The IC50 values of the last two compounds are within 1.5-fold of each other.

These data come from patent US6121326A, “Substituted alkyltetraamine derivatives” (Nippon Zoki Pharmaceutical Co., Ltd., priority 2000, dated 2000).
